Measurements reported in patent US6403618B1, “Agent and method for controlling angiogenesis” (Novactyl, Inc., priority 2000, dated 2002).

What was measured:
transformed cells = settings: cited from earlier work
recombinant MPS-1 = recombinant MPS-1 (Homo sapiens, UniProt P42677); assay: Zinc dependent binding of MPS-1 to DNA, gel shift assays and 65Zn; format: biochemical
Text: MPS-1 is a ubiquitous tumor marker and cell growth stimulator and is described in detail in the inventor's U.S. Pat. No. Re.35,585 (No. 5,243,041). MPS-1 has one zinc finger domain of the type CCCC. […] This is detected by a change in the electrophoretic mobility of MPS-1 under non-denaturing conditions. These experiments indicate that picolinic acid and derivatives should remove zinc and denature various types of zinc finger or zinc ring proteins, whether known or heretofore undiscovered, including viral proteins such as nucleocapsid p7 proteins, as will be explained further. Furthermore, the inventor has determined that any chemical compound, whether known or heretofore undiscovered, that will remove the zinc (or other metal) and denature the proteins or that will form a ternary complex (protein-zinc-chelator) can be effective as a therapeutic agent or as an autologous immune response modulator, as will be discussed in greater detail below.

normal cells = settings: cited from earlier work
iron in the cells = settings: cited from earlier work
[1] = Stability experiments as preservative in foods and on fresh fruits; format: physicochemical; settings: in foods and on the surface of fresh fruits
Text: (§1) The chelating agents of the present invention can be used as preservatives in perishable items such as foods and pharmaceuticals and to prevent fungal growth on the surface of fresh fruits. Presently chemicals such as citrashine orthophenilphenol thiabendazole are used. […] Microbial and fungal growth is inhibited while the food components are unaffected. The preservative of the present invention has less likelihood of toxicity or untoward reactions if ingested that the present, complex chemical antifungals. The preferred concentration of picolinic acid or acceptable derivative for this use is approximately 1% to approximately 99%.

[2] = test system: metastatic breast cancer lesions; assay: Treatment of metastatic disease to the skull from breast cancer; format: in vivo, human; settings: topical 10% picolinic acid in Aquaphor, changed twice daily
Procedure: A person with metastatic breast cancer to the skin and bone of the skull was treated with a topical preparation of 10% picolinic acid in Aquaphor. The preparation was applied to the cancerous lesions and to a bandage and changed twice daily. The multiple cancer lesions were approximately 1 to 1.5 cm in diameter.

WI-38 cells = assay: Effects of picolinic acid on growth (total cell protein); format: cell-based
Procedure: (§2) Cells were plated at 1.5×10^5 cells/60-mm dish; 48 hours later, the medium was removed, and new media with or without 3 mM picolinic acid was added. Total cell protein was determined at the indicated times; each point is the average of triplicate measurements from 2 cultures.

LoVo cells = assay: as above; format: cell-based
Procedure: as §2

psoriasis = assay: Treatment of proliferative skin disorders; format: in vivo, human; settings: topical, preliminary information
Text: Several patients suffering from proliferative skin disorders such as psoriasis have been included in a recent ongoing study of the anti-proliferative effects of topical picolinic acid. […] The patients may be treated with a topical application of approximately 5% to 20% picolinic acid, or a derivative thereof, in an absorption base. Alternatively, the patient may be treated with a solution containing approximately 5% to 20% picolinic acid, or derivative, in deionized water. The topical preparation may be applied twice a day or in an alternative pharmacologically acceptable regimen.

metastatic cancer = assay: Systemic administration in metastatic cancer; format: in vivo; settings: 00 gelatin capsules at 500 mg per capsule
Text: A systemic preparation of a picolinic acid, its derivatives or analogs containing approximately 1% to 100% active ingredient may be administered orally, intravenously or by any acceptable route for the treatment of cancer and systemic infections. […] The preparation can be provided as a flavored oral solution. Likewise, an injectable form may be prepared.

KB cells = assay: Effects of picolinic acid on growth (total cell protein); format: cell-based, human; settings: 3 mM
Procedure: as §2

LD-50 = settings: in vivo
recurrent plantar wart = assay: Treatment of virus-induced plantar ulcer; format: in vivo, human
Procedure: A patient with recurrent plantar wart of about 2 cm in diameter was treated with topical picolinic acid. The patient, a pathologist who had difficulty walking because of the pain caused by the ulcer, had experimented with numerous medications for more than three months without any significant results prior to treatment with the picolinic acid. It is relevant to note that many plantar ulcers are transformed into malignant tumors.
The patient was treated with a solution of 10% picolinic acid in deionized water for one week. […] They then were treated with 10% picolinic acid in Aquaphor. The ointment was placed on the ulcer and on a patch. The patch was replaced every 24 hours.

[3] = test system: Microbial and fungal growth; assay: Preservative use in foods and on fresh fruits
Text: as §1

[4] = test system: papilloma virus ulcerative lesion; assay: Treatment of ulcerative lesion with topical picolinic acid; format: in vivo, horse
Procedure: The lesion was progressive, with total loss of hair over the area. The diagnosis was viral disease, i.e. papilloma virus, complicated by fungal infection. The horse was treated with conventional local antibiotic and chemical therapies for about four months.
An aqueous solution of 10% picolinic acid in deionized water was applied every other day with a cotton swab over and around the lesion. The treatment continued for 45 days. The course of the regression of the viral lesion was as follows: […]

human papilloma viruses = assay: Treatment of patients with papilloma virus skin lesions (common warts); format: in vivo
Procedure: Five patients ranging in age from 11 years to 52 years and each having at least one common wart induced by human papilloma viruses was treated with a topical preparation of picolinic acid. The topical preparation was either solution of 10% to 20% picolinic acid in deionized water or a topical ointment wherein 10% picolinic acid is incorporated into Aquaphor, i.e.1 g of picolinic acid in 10 g of Aquaphor.

Text for actinic lesions: Two patients with actinic lesions (average of 5 lesions per patient, each lesion being approximately 3 mm to 5 mm in diameter) were diagnosed as requiring liquid nitrogen removal of the lesions. The patients received a daily application of 10% picolinic acid in Aquaphor.

For `O=C(O)c1ccccn1` [picolinic acid, 2-Pyridine carboxylic acid], the cytotoxicity (transformed cells) is listed as “cytotoxicity and cell death was observed”, the cell cycle arrest (transformed cells; short-term treatment) is listed as “blocked in different phases of the cell cycle” and the “removal of radioactive 65Zn from MPS-1” value (recombinant MPS-1; CCCC zinc finger, electrophoretic mobility, non-denaturing conditions) is listed as “remove radioactive ^65Zn from MPS-1”. For the same compound, the “zinc dependent binding of recombinant MPS-1 to DNA” value (recombinant MPS-1; gel shift assays) was “inhibit”, the toxic effects (normal cells; longer exposure, most normal cells) was “no toxic effects” and the cell cycle arrest (normal cells; short-term treatment) was “arrests normal cells in G1, (Go)”. The “incorporation of iron into the cells” value (iron in the cells) was “inhibits”, the “removal of radioiron from the cells” value (iron in the cells) was “effectively removes” and the stability as preservative [1] was “highly stable”. For the same compound, the “time until lesions resolved with scar tissue” value [2] was “approximately 35 days”, the lesion outcome (actinic lesions; daily 10% picolinic acid in Aquaphor, approximately three weeks, two patients) was “completely cured” and the “effects on normal skin” value (actinic lesions; in vivo) was “without any effects on normal skin”. The “growth of normal WI-38 cells” value (WI-38 cells; 3 mM picolinic acid, within 24 hours) was “inhibited”, the toxic effects (WI-38 cells; 3 mM, up to 72 hours of treatment) was “no toxic effects” and the “growth of LoVo cells” value (LoVo cells; 3 mM picolinic acid, FIG. 2) was “inhibited”. For the same compound, the cytotoxicity (LoVo cells; 3 mM, longer exposure 48-72 hours) was “cytotoxicity and cell death was observed”, the regression of psoriasis (psoriasis) was “significant effect in inducing regression” and the “control of metastatic cancer” value (metastatic cancer) was “effective”. The “cytotoxic effects relative to LoVo cells” value (KB cells) was “not as pronounced as in the case of LoVo cells”, the “growth and cytotoxicity compared with LoVo results” value (KB cells) was “Equivalent results were obtained” and the LD-50 (LD-50) was 140 grams/70 Kg. The ulcer appearance (recurrent plantar wart; 10% solution in deionized water for one week) was “Central necrosis was noted”, the ulcer outcome (recurrent plantar wart; then 10% in Aquaphor with patch, after an additional three weeks) was “resolved” and the “Microbial and fungal growth” value [3] was “inhibited”. The lesion appearance ([4]; 10% aqueous solution topical every other day, after 10 days) was “central necrosis”, the “diameter of the lesion” value ([4]; 10% aqueous solution topical, after 20 days, 3 inch at start) was “approximately 2 inches” and the “diameter of the lesion” value ([4]; 10% aqueous solution topical, after 30 days) was “about 1 inch”. The lesion outcome ([4]; 10% aqueous solution topical, at 45 days) was “resolved with some scar tissue”, the recurrence ([4]; after three additional months) was “without evidence of recurring disease” and the “resolution with ointment versus solution” value (human papilloma viruses; 10% picolinic acid in Aquaphor) was “faster resolution”. For the same compound, the wart appearance (human papilloma viruses; topical 10-20% solution or 10% Aquaphor ointment, after seven days) was “central necrosis of the wart occurred” and the “course of disease, 10% versus 20% solutions” value (human papilloma viruses; topical solution in deionized water) was “no significant difference”.
